Measured values taken from article PMC3178264 (Nature chemical biology, 2009).

How the values were obtained:
[1] = cited from earlier work
[2] = cited from earlier work; remark: listed apart in the source
[3] = molecular target: human UNG (Homo sapiens, UniProt P13051); assay type: biochemical
Chain of human UNG (P13051 whole entry): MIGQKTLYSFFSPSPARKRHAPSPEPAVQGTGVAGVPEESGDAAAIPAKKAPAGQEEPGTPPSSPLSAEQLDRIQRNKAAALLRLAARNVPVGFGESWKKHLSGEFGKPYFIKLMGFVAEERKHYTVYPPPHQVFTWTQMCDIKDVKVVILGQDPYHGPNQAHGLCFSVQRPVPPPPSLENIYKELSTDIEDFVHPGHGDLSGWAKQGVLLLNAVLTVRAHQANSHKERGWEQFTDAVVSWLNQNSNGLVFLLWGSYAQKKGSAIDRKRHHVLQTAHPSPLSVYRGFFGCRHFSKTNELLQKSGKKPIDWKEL

C=CC[C@@H]1/C=C(\C)C[C@H](C)C[C@H](OC)[C@H]2O[C@@](O)(C(=O)C(=O)N3CCCC[C@H]3C(=O)O[C@H](/C(C)=C/[C@@H]3CC[C@@H](O)[C@H](OC)C3)[C@H](C)[C@@H](O)CC1=O)[C@H](C)C[C@@H]2OC [FK506]
binds less tightly than expected from summing the binding free energies of its component fragments [1]: about 3 kcal/mol

CNCc1ccccc1 [N-methyl-benzyl amine]
pKa [2]: 9.8

O=C(O)c1cccc(/C=N/OCCCNCc2cc(=O)[nH]c(=O)[nH]2)c1 [compound 6]
free energy change more negative than DO ([3]; MA1 compared with DO): -2.0 kcal/mol

O=C(O)c1cccc(CNCCCO/N=C/c2cc(=O)[nH]c(=O)[nH]2)c1 [compound 22]
ΔΔG of binding on switching amine to oxime linkages ([3]; difference free energies relative to DA (27), Figure 4): -0.6 kcal/mol
